From patent US11766443B2, “Cyclopentathiophene carboxamide derivatives as platelet activating factor receptor antagonists” (Boehringer Ingelheim International GmbH, priority 2021, dated 2023)
Converted amounts (≈) assume the structure as drawn.

How the values were obtained:
[1] = biological target: T1, human PAFR (Homo sapiens, UniProt P25105); test: cellular HTRF IP1 endpoint assay: inhibition of PAFR activation by PAF C-16 ligand; type: cell-based; conditions: HEK293 cells overexpressing human PAFR; PAF ligand 11 nM
T1 construct: expressed in transfected cells; host or cells: HEK293
Description: The ability of compounds of formula (I.0) to inhibit the activation of the PAF receptor (PAFR) by the PAF C-16 ligand (PAF) is determined using the following cellular HTRF IP1 assay (IP1 Gq assay kit from Cisbio, Cat. no.: 62IP1APEJ) in assay buffer (1×HBSS, 20 mM Hepes, pH 7.4, 50 mM LiCl and containing 0.1% (w/v) BSA):
HEK293 cells overexpressing human PAFR (produced in-house) are seeded into a Poly-D-Lysine coated 384 well white cell culture microtiter assay plate with lid (15.000 cells per well). Subsequently, the plates are incubated over night at 37° C./5% CO2. On the next day, cells are being washed and subsequently, various concentrations of the test compounds (compounds in 100% DMSO; final concentration of DMSO in wells is 1%) are added to the assay plate via Echo 555 acoustic liquid handler. Plates are then incubated with lid for 90 minutes at 37° C./5% CO2. Thereafter, PAF ligand (Cayman Chemical Company, Item no.: 60900) is added at a final concentration of 11 nM. Plates are then incubated with lid for 60 minutes at 37° C./5% CO2. Then, 5 μl per well of Anti-IP1-Anti body-Cryptate solution and 5 μL per well of IP1-d2 solution are added to all wells of the plate and the plate is incubated for another 60 minutes light protected at room temperature. The emissions at 620 nm and 665 nm (Excitation wavelength: 320 nm) are measured using an Envision Reader (PerkinElmer).

[2] = aqueous solubility in buffer (from DMSO stock, 24 h shaking, LC-UV); conditions: pH 2.2, aqueous buffer, kinetic from dmso stock
Description: The aqueous solubility of the test compound is determined by comparing the amount dissolved in buffer to the amount in an ACN/water (1/1) solution. Starting from a 10 mM DMSO stock solution aliquots are diluted with ACN/water (1/1) or buffer, respectively. After 24 h of shaking, the solutions are filtrated and analyzed by LC-UV. The amount dissolved in buffer is compared to the amount in the ACN solution.
Solubility will usually be measured from 0.001 to 0.125 mg/mL at a DMSO concentration of 2.5%. If more than 90% of the compound is dissolved in buffer, the value is marked with “>”.

T1 sequence (P25105 whole entry): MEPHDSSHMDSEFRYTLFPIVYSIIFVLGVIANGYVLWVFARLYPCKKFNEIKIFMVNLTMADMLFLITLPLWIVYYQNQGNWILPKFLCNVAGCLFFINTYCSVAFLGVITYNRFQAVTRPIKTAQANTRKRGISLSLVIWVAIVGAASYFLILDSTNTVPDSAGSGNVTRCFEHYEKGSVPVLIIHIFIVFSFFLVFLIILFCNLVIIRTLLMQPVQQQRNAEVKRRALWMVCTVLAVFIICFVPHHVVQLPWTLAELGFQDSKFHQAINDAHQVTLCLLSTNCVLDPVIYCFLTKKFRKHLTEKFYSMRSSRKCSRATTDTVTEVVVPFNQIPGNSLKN

SMILES | IC50 [1] | solubility at 24 h [2]
Cc1nnc2n1-c1sc3c(c1C(c1ccccc1C1CC1)NC2)CC(C(=O)N1CCOCC1)C3 (racemic) [Example 59, 9-(2-Cyclopropylphenyl)-3-methyl-13-(morpholine-4-carbonyl)-16-thia-2,4,5,8-tetraazatetracyclo[8.6.0.0^2,6.0^11,15]-hexadeca-1(10),3,5,11(15)-tetraene] | > 322 nM | > 119 µg/mL
CCC12CC(NC(=O)[C@@H]3Cc4sc5c(c4C3)[C@H](c3ccccc3Cl)NCc3nnc(C)n3-5)(C1)C2 [Example 50] | 0.5 nM | 98 µg/mL (≈ 198 µM)
Cc1nnc2n1-c1sc3c(c1[C@H](c1ccccc1Cl)NC2)C[C@H](C(=O)N1C[C@H](C)O[C@@H](C)C1)C3 [Example 6] | 11 nM | > 112 µg/mL
Cc1nnc2n1-c1sc3c(c1C(c1ccccc1Cl)NC2)CC(C(=O)N1CCOCC1)C3 (racemic) [Example 1, 9-(2-Chlorophenyl)-3-methyl-13-(morpholine-4-carbonyl)-16-thia-2,4,5,8-tetraazatetracyclo[8.6.0.0^2,6.0^11,15]-hexadeca-1(10),3,5,11(15)-tetraene] | 102 nM | > 115 µg/mL
Cc1nnc2n1-c1sc3c(c1C(c1ccccc1F)NC2)CC(C(=O)N1CCOCC1)C3 (racemic) [Example 55, 9-(2-Fluorophenyl)-3-methyl-13-(morpholine-4-carbonyl)-16-thia-2,4,5,8-tetraazatetracyclo[8.6.0.0^2,6.0^11,15]hexadeca-1(10),3,5,11(15)-tetraene] | 240 nM | > 112 µg/mL
Cc1nnc2n1-c1sc3c(c1[C@H](c1ccccc1Cl)NC2)C[C@H](C(=O)NCc1nccs1)C3 [Example 40] | 83 nM | > 111 µg/mL
Cc1ncsc1CNC(=O)[C@@H]1Cc2sc3c(c2C1)[C@H](c1ccccc1Cl)NCc1nnc(C)n1-3 [Example 48] | 15 nM | > 128 µg/mL
Cc1nnc2n1-c1sc3c(c1[C@@H](c1ccccc1Cl)NC2)C[C@H](C(=O)NC1CCC1)C3 [Example 9] | 34 nM | > 105 µg/mL
Cc1nnc2n1-c1sc3c(c1[C@H](c1ccccc1Cl)NC2)C[C@H](C(=O)N1CCC(F)(F)CC1)C3 [Example 18] | 3.1 nM | > 112 µg/mL
COc1ccc(Cl)c(C2NCc3nnc(C)n3-c3sc4c(c32)CC(C(=O)N2CCOCC2)C4)c1 (stereo not drawn) [Example 62, 9-(2-Chloro-5-methoxyphenyl)-3-methyl-13-(morpholine-4-carbonyl)-16-thia-2,4,5,8-tetraazatetracyclo-[8.6.0.0^2,6.0^11,15]hexadeca-1(10),3,5,11(15)-tetraene] | 94 nM | > 118 µg/mL
O=C(C1Cc2sc3c(c2C1)C(c1ccccc1Cl)NCc1nnc(C2CC2)n1-3)N1CCOCC1 (stereo not drawn) [Example 81, 9-(2-Chlorophenyl)-3-cyclopropyl-13-(morpholine-4-carbonyl)-16-thia-2,4,5,8-tetraazatetracyclo[8.6.0.0^2,6.0^11,15]hexadeca-1(10),3,5,11(15)-tetraene] | 224 nM | 68 µg/mL (≈ 137 µM)
Cc1ncc2n1CCN(C(=O)[C@@H]1Cc3sc4c(c3C1)[C@H](c1ccccc1Cl)NCc1nnc(C)n1-4)C2 [Example 29] | 69 nM | > 110 µg/mL
Cc1nnc2n1-c1sc3c(c1[C@H](c1ccccc1Cl)NC2)C[C@H](C(=O)N1CC(C)(C)C1)C3 [Example 24] | 2 nM | > 105 µg/mL
CCc1nnc2n1-c1sc3c(c1[C@H](c1ccccc1Cl)NC2)C[C@H](C(=O)N1CCOCC1)C3 [Example 69] | 35 nM | > 121 µg/mL
Cc1nnc2n1-c1sc3c(c1[C@H](c1ccccc1Cl)NC2)C[C@H](C(=O)N1CCC1)C3 [Example 32] | 34 nM | > 139 µg/mL
